Reference: patent publication US20040024024A1, “Aromatic sulfone hydroxamates and their use as protease inhibitors” (priority 2001, published 2004)

Columns and labels:
Assay in all cases: In vitro MMP inhibition, IC50 determination (fluorogenic substrate I)
Assay type in all cases: biochemical
[1] = target: T1, Human recombinant MMP-14 (Homo sapiens, UniProt P50281)
T1 construct: The catalytic domain enzyme was expressed in E. coli inclusion bodies, solubilized in urea; made in house
Outline: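 Catalytic-domain MMP-14, expressed in E. coli and refolded, activated with APMA or trypsin; compounds incubated at room temperature with 4 μM fluorogenic substrate I (MCA-PLGL-Dpa-AR-NH2) in Tris/NaCl/CaCl2 buffer, pH 7.5. Fluorescence at ex 328/em 415 nm; IC50 from loss of fluorescence versus inhibitor concentration.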

[2] = target: T2, Human recombinant MMP-2 (Homo sapiens, UniProt P08253)
T2 construct: made in house; host or cells: MMP-2-transfected p2AHT2 cells
T2 sequence (P08253 110-660): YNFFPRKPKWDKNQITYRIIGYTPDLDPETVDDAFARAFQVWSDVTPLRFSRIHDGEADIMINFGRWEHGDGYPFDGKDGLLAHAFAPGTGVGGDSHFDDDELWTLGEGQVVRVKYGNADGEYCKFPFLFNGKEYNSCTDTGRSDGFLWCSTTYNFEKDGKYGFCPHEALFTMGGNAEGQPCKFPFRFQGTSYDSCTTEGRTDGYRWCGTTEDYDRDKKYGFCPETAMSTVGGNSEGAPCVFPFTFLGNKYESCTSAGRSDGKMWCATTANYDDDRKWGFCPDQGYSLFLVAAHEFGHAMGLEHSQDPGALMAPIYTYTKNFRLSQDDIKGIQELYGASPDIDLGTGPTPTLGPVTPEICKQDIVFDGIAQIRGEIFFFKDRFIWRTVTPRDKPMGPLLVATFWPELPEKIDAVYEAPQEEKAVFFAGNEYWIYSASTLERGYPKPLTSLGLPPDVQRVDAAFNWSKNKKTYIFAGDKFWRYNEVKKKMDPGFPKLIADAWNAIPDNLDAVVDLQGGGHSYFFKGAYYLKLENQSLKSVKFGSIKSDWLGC
Outline: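 APMA- or trypsin-activated recombinant MMP-2 was incubated at room temperature with serial inhibitor dilutions in Tris buffer pH 7.5 (100 mM NaCl, 10 mM CaCl2, 0.05% Brij), with DMSO from 1% stocks, and 4 μM substrate I. Cleavage was read by fluorescence at 328/415 nm; IC50 was taken from the loss of fluorescence versus inhibitor concentration.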

[3] = target: T3, Human recombinant MMP-9 (Homo sapiens, UniProt P14780)
T3 construct: made in house; host or cells: MMP-9-transfected HT1080 cells (spent media)
Outline: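 MMP-9 proenzyme purified from transfected HT1080 cell media, activated with APMA or trypsin. Compound dilutions in pH 7.5 Tris/NaCl/CaCl2 buffer with 0.05% polyoxyethylene 23 lauryl ether, incubated at room temperature with 4 μM MCA/Dpa substrate I. IC50 from fluorescence loss (ex 328, em 415 nm) versus inhibitor concentration.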

[4] = target: T4, Human recombinant MMP-1 (Homo sapiens, UniProt P03956)
T4 construct: made in house; host or cells: MMP-1-transfected HT-1080 cells (spent media)
T4 sequence (P03956 100-469): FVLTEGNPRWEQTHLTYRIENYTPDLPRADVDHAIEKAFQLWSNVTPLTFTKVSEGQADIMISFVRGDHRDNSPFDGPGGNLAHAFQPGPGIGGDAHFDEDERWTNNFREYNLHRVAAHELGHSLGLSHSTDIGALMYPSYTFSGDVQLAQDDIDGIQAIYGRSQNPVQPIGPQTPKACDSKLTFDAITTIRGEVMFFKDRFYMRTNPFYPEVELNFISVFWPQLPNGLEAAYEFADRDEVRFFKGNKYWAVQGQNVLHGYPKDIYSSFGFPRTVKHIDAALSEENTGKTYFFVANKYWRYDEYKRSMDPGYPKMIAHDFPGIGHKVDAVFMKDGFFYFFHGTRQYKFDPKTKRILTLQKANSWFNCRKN
Outline: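 APMA- or trypsin-activated enzyme, purified from spent media of transfected HT-1080 cells, incubated at room temperature with 4 μM MCA-Pro-Leu-Gly-Leu-Dpa-Ala-Arg-NH2 and graded inhibitor in Tris buffer pH 7.5 (10 mM CaCl2, 0.05% Brij). Cleavage read by fluorescence (ex 328/em 415 nm); IC50 from fluorescence reduction versus inhibitor concentration.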

[5] = target: T5, Human recombinant MMP-13 (Homo sapiens, UniProt P45452)
T5 construct: made in house; host or cells: baculovirus / insect cells
Outline: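 Fluorescence at 415 nm (excitation 328 nm) reports Gly-Leu cleavage of 4 μM quenched methoxycoumarin peptide substrate I. Human recombinant MMP-13, activated by trypsin or APMA, was incubated at room temperature with varied inhibitor concentrations in pH 7.5 Tris/NaCl/CaCl2 buffer; IC50 derived from reduced fluorescence.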

[6] = value outside parentheses (Ki in parenthesis)
[7] = substrate (I) 4 μM, room temperature, values not in parenthesis

T3 sequence (P14780 107-707 limits assumed): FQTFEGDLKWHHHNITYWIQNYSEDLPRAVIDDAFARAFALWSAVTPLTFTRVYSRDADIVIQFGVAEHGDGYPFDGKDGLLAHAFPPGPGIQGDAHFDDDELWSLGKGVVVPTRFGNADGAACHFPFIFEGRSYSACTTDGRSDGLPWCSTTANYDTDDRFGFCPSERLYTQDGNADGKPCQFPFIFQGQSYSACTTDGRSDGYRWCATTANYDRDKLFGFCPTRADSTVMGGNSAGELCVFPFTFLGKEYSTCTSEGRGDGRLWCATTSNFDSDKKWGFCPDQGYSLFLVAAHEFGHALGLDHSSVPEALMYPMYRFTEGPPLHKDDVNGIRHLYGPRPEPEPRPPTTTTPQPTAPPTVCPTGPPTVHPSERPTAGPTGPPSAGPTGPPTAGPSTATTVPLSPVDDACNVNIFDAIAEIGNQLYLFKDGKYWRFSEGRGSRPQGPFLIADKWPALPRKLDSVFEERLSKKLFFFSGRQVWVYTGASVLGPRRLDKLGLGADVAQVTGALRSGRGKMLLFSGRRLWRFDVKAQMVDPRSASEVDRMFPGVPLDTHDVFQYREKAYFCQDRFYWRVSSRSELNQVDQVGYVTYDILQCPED

An IC50 ([1]; value outside parenthesis) greater than 10000 nM, an IC50 ([2]; value outside parenthesis) of 410 nM and an IC50 ([3]; value outside parenthesis) of 1470 nM were found for `COc1ccccc1-c1nnc(CCCOc2ccc(S(=O)(=O)C3(C(=O)NO)CCOCC3)cc2)o1` [Example 220] in this work. For the same compound, the IC50 ([4]; value outside parenthesis) was greater than 10000 nM and the IC50 ([5]; value outside parenthesis) was 5.7 nM.
An IC50 ([1]; value outside parenthesis) greater than 10000 nM, an IC50 ([2]; value outside parenthesis) of 222 nM and an IC50 ([3]; value outside parenthesis) of 516 nM were found for `O=C1N(CCCOc2ccc(S(=O)(=O)C3(C(=O)NO)CCOCC3)cc2)CCN1c1ccc(OC(F)(F)F)cc1` [Example 194] in this work. The IC50 ([4]; value outside parenthesis) was greater than 10000 nM and the IC50 ([5]; value outside parenthesis) was 6.2 nM.
An IC50 [1, 6] of 5640 nM, an IC50 [2, 6] of 23 nM and an IC50 [3, 6] of 160 nM were found for `O=C(NO)C1(S(=O)(=O)c2ccc(OCCSc3nc4c(Cl)cc(Cl)cc4o3)cc2)CCOCC1` [Example 409] in this work. It also gave an IC50 [4, 6] greater than 10000 nM and an IC50 [5, 6] of 1 nM.
An IC50 ([1]; value outside parenthesis) greater than 10000 nM, an IC50 ([2]; value outside parenthesis) of 173 nM and an IC50 ([3]; value outside parenthesis) of 1960 nM were found for `Cc1cccc(-c2nnc(CCCOc3ccc(S(=O)(=O)C4(C(=O)NO)CCOCC4)cc3)o2)c1` [Example 258] in this work. The IC50 ([4]; value outside parenthesis) was greater than 10000 nM and the IC50 ([5]; value outside parenthesis) was 1.7 nM.
An IC50 ([1]; value outside parenthesis) greater than 10000 nM, an IC50 ([2]; value outside parenthesis) of 6.9 nM and an IC50 ([3]; value outside parenthesis) of 285 nM were found for `O=C(NO)C1(S(=O)(=O)c2ccc(OCCCc3nc(-c4cccc([N+](=O)[O-])c4)no3)cc2)CCOCC1` [Example 210] in this work. For the same compound, the IC50 ([4]; value outside parenthesis) was greater than 10000 nM and the IC50 ([5]; value outside parenthesis) was 1.3 nM.
An IC50 [1, 7] greater than 10000 nM, an IC50 [2, 7] of 247 nM and an IC50 [3, 7] of 8500 nM were found for `COc1ccc(/C(CCCCOc2ccc(S(=O)(=O)C3(C(=O)NO)CCOCC3)cc2)=N/O)c(OC)c1` [Example 25] in this work. For the same compound, the IC50 [4, 7] was greater than 10000 nM and the IC50 [5, 7] was 1.8 nM.
An IC50 ([1]; value outside parenthesis) greater than 10000 nM, an IC50 ([2]; value outside parenthesis) of 174 nM and an IC50 ([3]; value outside parenthesis) of 6230 nM were found for `O=C(NO)C1(S(=O)(=O)c2ccc(OCCCc3nnc(-c4ccc(-c5ccccc5)cc4)o3)cc2)CCOCC1` [Example 257] in this work. For the same compound, the IC50 ([4]; value outside parenthesis) was greater than 10000 nM and the IC50 ([5]; value outside parenthesis) was 0.5 nM.
An IC50 [1, 6] greater than 10000 nM, an IC50 [2, 6] of 135 nM and an IC50 [3, 6] of 139 nM were found for `N#Cc1ccc(N2CCN(CCCOc3ccc(S(=O)(=O)C4(C(=O)NO)CCOCC4)cc3)C2=O)cc1` [Example 307] in this work. The IC50 [4, 6] was 8130 nM and the IC50 [5, 6] was 4.5 nM.
An IC50 [1, 6] of 515 nM, an IC50 [2, 6] of 12 nM and an IC50 [3, 6] of 202 nM were found for `O=C(NO)C1(S(=O)(=O)c2ccc(OCCSc3nc4ccccc4o3)cc2)CCOCC1` [Example 410] in this work. The IC50 [4, 6] was 4700 nM and the IC50 [5, 6] was 1.1 nM.
An IC50 [1, 6] greater than 10000 nM, an IC50 [2, 6] of 907 nM and an IC50 [3, 6] greater than 10000 nM were found for `O=C(NCCCOc1ccc(S(=O)(=O)C2(C(=O)NO)CCOCC2)cc1)c1cnc2ccccc2c1` [Example 390] in this work. The IC50 [4, 6] was greater than 10000 nM and the IC50 [5, 6] was 2.7 nM.
An IC50 [1, 6] greater than 10000 nM, an IC50 [2, 6] of 135 nM and an IC50 [3, 6] of 1560 nM were found for `C[C@H]1[C@@H](c2ccccc2)OC(=O)N1CCCOc1ccc(S(=O)(=O)C2(C(=O)NO)CCOCC2)cc1` [Example 309] in this work. The IC50 [4, 6] was greater than 10000 nM and the IC50 [5, 6] was 1.8 nM.
An IC50 ([1]; value outside parentheses) of 3320 nM, an IC50 ([2]; value outside parentheses) of 25.2 nM and an IC50 ([3]; value outside parentheses) of 49.9 nM were found for `O=C(NO)C1(S(=O)(=O)c2ccc(OCCOCc3cccc(F)c3)cc2)CCOCC1` [Example 663] in this work. It also gave an IC50 ([4]; value outside parentheses) greater than 10000 nM and an IC50 ([5]; value outside parentheses) of 3.61 nM.
An IC50 [1, 6] greater than 10000 nM, an IC50 [2, 6] of 11 nM and an IC50 [3, 6] of 4040 nM were found for `O=C(CCCCOc1ccc(S(=O)(=O)C2(C(=O)NO)CCOCC2)cc1)c1cccc(-c2ccccc2)c1` [Example 325] in this work. For the same compound, the IC50 [4, 6] was greater than 10000 nM and the IC50 [5, 6] was 0.5 nM.
An IC50 [1, 6] of 3620 nM, an IC50 [2, 6] of 17.4 nM and an IC50 [3, 6] of 1070 nM were found for `CC(C)(C)c1ccc(C(=O)CCCOc2ccc(S(=O)(=O)C3(C(=O)NO)CCOCC3)cc2)cc1` [Example 355] in this work. The IC50 [4, 6] was greater than 10000 nM and the IC50 [5, 6] was 1.1 nM.
